The values below come from article PMC6222706, “Evaluation of the Antioxidant and Neuroprotectant Activities of New Asymmetrical 1,3-Diketones” (Molecules : A Journal of Synthetic Chemistry and Natural …, 2018).

Data set [1] is described as follows: Cytotoxicity in SH-SY5Y cells (MTT). Type of data set: cell-based. The conditions noted are these: human, SH-SY5Y neuronal cells, concentration reducing cell viability to 50% of control. How it is done:
So, to study the neuroprotectant potential of β-diketones in the SH-SY5Y cell line, we firstly need to determine their cytotoxicity in the same cellular model. […] In addition to that, within each series, the introduction of a second fluorine atom in the left-hand side phenyl ring decreases also the cytotoxicity.
SH-SY5Y cells were seeded into 96-well plates at a density of 5 × 10^3 cells/well and grown in the incubator for 24 h. All compounds tested were dissolved and eventually further diluted in dimethylsulfoxide (DMSO). After overnight incubation, the cells were treated with different test concentrations (5, 10, 20, 50, 100, 150, 200 µM) in a final volume of 200 µL with four replicates each. […] Cell proliferation or viability was measured using the 3-(4,5-dimethylthiazol-2-yl)-2,5-diphenyl tetrazolium bromide (MTT) assay. After 24 h, 20 µL of MTT (5 mg/mL) was added to each well and the plate was incubated at 37 °C in the dark for 2 h. Supernatants were removed and the formazan crystals were solubilized in DMSO (200 µL/well), under 10 min shaking at room temperature. The reduction of MTT was quantified by absorbance at 570 nm Varioskan microplate reader (Thermo Fisher Scientific, Vantaa, Finland). Effects of the test compounds on cell viability were calculated using cells treated with vehicle as control. The data were subjected to linear regression analysis and the regression lines were plotted for the best fit. The IC50 (inhibition of cell viability) concentrations were calculated using the respective dose-response curves.

A short description of data set [2]: ABTS radical scavenging assay. Type of data set: biochemical. The settings on record: for IC50: 30 min incubation, EtOH, absorbance at 734 nm; for ABTS-TEAC100: Trolox Equivalent Antioxidant Capacity vs 100 µM solution of the substance, from ABTS assay. How it is done:
ABTS^+ radical was produced by reacting 2,2′-azino-bis-3-ethylbenzthiazoline-6-sulphonic acid (ABTS) 7 mM with K2S2O8 2.45 mM, both reactants dissolved in water, and at the volume ratio of 1:1. The mixture was stored in the dark at room temperature for 16 h. The ABTS^+ solution was diluted to give an absorbance of 0.750 ± 0.025 at 734 nm in EtOH. All the compounds tested were dissolved in EtOH. 150 µL of each compound solution was added to the wells of the 96-well plate, followed by the addition of 50 µL of the ABTS^+ radical solution. Final compound concentrations tested were 0, 5, 10, 20, 50, 100, 150, 200 µM. The absorbance change at 734 nm was recorded after 30 min incubation in the dark, and the percentage of radical scavenging was calculated for each concentration relative to a blank containing no scavenger. The degree of decolorization was calculated as the percentage reduction of absorbance. The ABTS^+ radical scavenging activity was calculated as follows: Percentage ABTS^+ radical scavenging activity = {1 − [As/Ac]} × 100(1) where As is the absorbance of the ABTS^+ radical solution containing samples and Ac the absorbance of the control solution without antioxidant. The percentages of ABTS^+ radical reduced were plotted against compound concentration. Trolox was used as a reference antioxidant. All the assays were carried out three times by quadruplicate for each compound.

A short description of data set [3]: FRAP (Ferric Reducing Antioxidant Power) assay. The settings on record: for FRAP-TEAC100: Trolox Equivalent Antioxidant Capacity vs 100 µM solution of the substance, from FRAP assay; for FRAP Assay (%) at 100 µM / FRAP Assay (%) at 200 µM: 30 min, 593 nm. The format is biochemical. How it is done:
The assay was carried out according to the method of Benzie et al. with slight modifications, in a 96-well microplate. FRAP reagent was prepared by mixing 10 mL of 300 mM acetate buffer with 1 mL of 10 mM 2,4,6-tripyridyl-S-triazine (TPTZ) in HCl 40 mM and 1mL of FeCl3·6H2O 20 mM. Firstly, 190 µL of the FRAP reagent were added to all wells of the 96-well plate, followed by the addition to the well of 10 µL of the test compounds dissolved in Ethanol to reach the final concentrations assayed (0, 5, 10, 20, 50, 100, 150, 200 µM). After 30 min incubation in the dark, the absorbance was read at 593 nm. Trolox was used as assay control. Three different assays were carried out by quadruplicate for each compound.

A short description of data set [4]: DPPH radical scavenging assay. The settings on record: antioxidant concentration that decreases initial DPPH^• concentration by 50%; 30 min, 517 nm. The format is biochemical. How it is done:
The assay was performed in a 96-well microplate. A 0.2 mM solution of 2,2-diphenyl-1-picryl-hydrazyl-hydrate (DPPH) in ethanol was prepared. All the compounds tested were dissolved in EtOH. Firstly, 150 µL of each compound solution was added to the wells of the 96-well plate, followed by the addition of 50 µL of the DPPH solution. Final compound concentrations tested were 0, 5, 10, 20, 50, 100, 150, 200 µM. The change in absorbance at 517 nm was measured after 30 min incubation in the dark. The free radical scavenging activity was calculated as inhibition using the following Equation (2): Percentage DPPH radical scavenging activity = {1 − [As/Ac]} × 100(2) where As is the absorbance of the DPPH solution containing samples and Ac the absorbance of the control solution without antioxidant but with DPPH. The percentages of DPPH reduced were plotted against compound concentration. The experiment was also conducted using Trolox as reference antioxidant. Assays were performed three times by quadruplicate for each compound.
(The DPPH test is a chemical assay of radical scavenging.)

Data set [5] is described as follows: Iron chelation capacity (Fe^+2-ferrozine complex). The format is biochemical. The conditions noted are these: all experiments, both 50 and 200 µM. Here is the method: To decrease the level of free Fe^2+ that can reduce H2O2 to the ^•OH radical and produce other ROS, it is worth to evaluate the iron chelation capacity of new potential AOX compounds as potential new therapeutic agents against neurodegenerative diseases. […] In this assay ferrozine form complexes with Fe^+2 in a quantitative manner, and in the presence of chelating compounds this complex is disrupted.
The iron chelation capacity was determined according to the method of Dinis et al., using ferrous chloride instead of ferrous sulfate. In this method, ferrozine can form complexes with a ferrous ion in a quantitative way yielding a red color with maximum absorbance at 562 nm. In the presence of other iron chelators, a decoloration is observed due to the competition with ferrozine for the metal. The assay was carried out in a 96 well plate. Serial dilutions of test compound (0, 5, 10, 25, 50, 100, 150, 200 µM) were dispensed (180 µL) into each well and then 10 µL of FeCl2 1 mM were added (final FeCl2 concentration, […]). After shaking the plate for 1 min, 10 µL of Ferrozine 2 mM were added. The mixture was shaken thoroughly and left to stand for 20 min at room temperature. The absorbance was measured at 562 nm with a Varioskan microplate reader. […] The compound iron chelation activity was calculated as the percentage of inhibition of the Fe^+2-Ferrozine complex by the formula in Equation (3):%Inhibition = {(Ao − As)/Ao} × 100(3) where Ao is the absorbance of the control, and As is the absorbance in the presence of the test compound. EDTA was used as a positive control. All the experiments were performed three times by quadruplicate for each compound concentration.

The structures appear in SMILES notation. Some results are limits rather than exact numbers.

`O=C(/C=C(O)/C=C/c1cc(F)c(O)cc1F)c1ccccc1` [Compound 6a, (2Z,4E)-5-(2,5-difluoro-4-hydroxyphenyl)-3-hydroxy-1-phenylpenta-2,4-dien-1-one] had an IC50 at 24 h in data set [1] of 134 ± 6.6 µM. Also, in data set [2], the IC50 worked out at 67.2 ± 2.7 µM and the ABTS-TEAC100 stood at 0.51. In data set [3], the FRAP-TEAC100 was 0.25, the “FRAP Assay (%) at 100 µM” value came to 15.5% and the “FRAP Assay (%) at 200 µM” value was determined as 25.2%.
The compound `O=C(/C=C(O)/C=C/c1ccc(F)c(O)c1F)C(F)(F)F` [Compound 5b, (3Z,5E)-6-(2,4-difluoro-3-hydroxyphenyl)-1,1,1-trifluoro-4-hydroxyhexa-3,5-dien-2-one] displayed a 50% inhibitory concentration (IC50) at 24 h in data set [1] of 153 ± 21 µM. Besides, in data set [2], the half-inhibitory concentration (IC50) is 518 ± 94.6 µM and the ABTS-TEAC100 turned out to be 0.32. In data set [3], the FRAP-TEAC100 was determined as 0.05, the “FRAP Assay (%) at 100 µM” value is recorded as 3.0% and the “FRAP Assay (%) at 200 µM” value is on record as 4.7%.
In data set [1], `O=C(/C=C(O)/C=C/c1ccc(O)c(F)c1)c1ccccc1` [Compound 3a, (2Z,4E)-5-(3-fluoro-4-hydroxyphenyl)-3-hydroxy-1-phenylpenta-2,4-dien-1-one] registered a 50% inhibitory concentration (IC50) at 24 h of 98.1 ± 8.3 µM. In data set [2], it took 60.2 ± 2.2 µM to reach half-maximal inhibition (IC50) and the ABTS-TEAC100 is given as 0.51. Besides, in data set [3], the FRAP-TEAC100 came out at 0.33, the “FRAP Assay (%) at 100 µM” value worked out at 20.5% and the “FRAP Assay (%) at 200 µM” value turned out to be 31.0%.
Consider `O=C(/C=C(O)/C=C/c1ccc(O)c(F)c1)C(F)(F)F` [Compound 3b, (3Z,5E)-1,1,1-trifluoro-6-(3-fluoro-4-hydroxyphenyl)-4-hydroxyhexa-3,5-dien-2-one], for which 109 ± 7.6 µM corresponded to half-maximal inhibition in data set [1] (IC50 at 24 h). Moreover, in data set [2], the midpoint of inhibition, the IC50, lay at 113 ± 12.4 µM and the ABTS-TEAC100 is on record as 0.67. In data set [3], the FRAP-TEAC100 amounted to 0.34, the “FRAP Assay (%) at 100 µM” value was 19.7% and the “FRAP Assay (%) at 200 µM” value turned out to be 32.6%.
For the compound `COc1cc(/C=C/C(O)=C/C(=O)C(F)(F)F)ccc1O` [Compound 1b, (3Z,5E)-1,1,1-trifluoro-4-hydroxy-6-(4-hydroxy-3-methoxyphenyl)hexa-3,5-dien-2-one], the IC50 at 24 h in data set [1] was 102 ± 5.6 µM. Further, in data set [2], inhibition was half-maximal at 34.6 ± 2.7 µM (IC50) and the ABTS-TEAC100 was determined as 0.73. In data set [4], this compound had a 50% inhibitory concentration (IC50) of 53.8 ± 2.6 µM. Moreover, in data set [3], the FRAP-TEAC100 worked out at 0.64, the “FRAP Assay (%) at 100 µM” value amounted to 36.6% and the “FRAP Assay (%) at 200 µM” value was 61.4%.
On to `O=C(/C=C(O)/C=C/c1ccc(F)c(O)c1F)c1ccccc1` [Compound 5a, (2Z,4E)-5-(2,4-difluoro-3-hydroxyphenyl)-3-hydroxy-1-phenylpenta-2,4-dien-1-one], for which the half-inhibitory concentration (IC50) at 24 h in data set [1] turned out to be 119 ± 8.5 µM. In addition, in data set [2], half-maximal inhibition (IC50) was put at 275 ± 35.3 µM and the ABTS-TEAC100 is 0.23. Further, in data set [3], the FRAP-TEAC100 is recorded as 0.05, the “FRAP Assay (%) at 100 µM” value came to 3.4% and the “FRAP Assay (%) at 200 µM” value turned out to be 5.3%.
In data set [1], `O=C(/C=C(O)/C=C/c1ccc(O)cc1F)C(F)(F)F` [Compound 4b, (3Z,5E)-1,1,1-trifluoro-6-(2-fluoro-4-hydroxyphenyl)-4-hydroxy-hexa-3,5-dien-2-one] yielded an IC50 at 24 h of 138 ± 6.5 µM. Also, in data set [2], the IC50 turned out to be 216 ± 39.5 µM and the ABTS-TEAC100 is 0.52. For the same compound, in data set [3], the FRAP-TEAC100 is 0.09, the “FRAP Assay (%) at 100 µM” value was found to be 4.8% and the “FRAP Assay (%) at 200 µM” value was determined as 8.5%.
Consider `Cc1c(C)c2c(c(C)c1O)CCC(C)(C(=O)O)O2` (centres unmarked) [Trolox, reference compound], for which, in data set [2], the IC50 stood at 34 ± 2.3 µM and the ABTS-TEAC100 turned out to be 1. For the same compound, in data set [4], the concentration for half-maximal inhibition (IC50) is 19 ± 1.8 µM. For the same compound, in data set [3], the FRAP-TEAC100 is reported as 1, the “FRAP Assay (%) at 100 µM” value is recorded as 53.0% and the “FRAP Assay (%) at 200 µM” value is on record as 100.0%.
As to `COc1cc(/C=C/C(O)=C/C(=O)C(F)(F)F)ccc1F` [Compound 2b, (3Z,5E)-1,1,1-trifluoro-6-(4-fluoro-3-methoxyphenyl)-4-hydroxyhexa-3,5-dien-2-one], in data set [1], the 50% inhibitory concentration (IC50) at 24 h was determined as 88 ± 4.5 µM. In data set [2], the IC50 was more than 600 µM and the ABTS-TEAC100 was found to be 0.23. In data set [3], the FRAP-TEAC100 was 0.03, the “FRAP Assay (%) at 100 µM” value was determined as 1.9% and the “FRAP Assay (%) at 200 µM” value came to 3.1%.
In turn, `COc1cc(/C=C/C(O)=C/C(=O)c2ccccc2)ccc1F` [Compound 2a, (2Z,4E)-5-(4-fluoro-3-methoxyphenyl)-3-hydroxy-1-phenylpenta-2,4-dien-1-one] registered a half-maximal inhibitory concentration (IC50) at 24 h in data set [1] of 75.7 ± 5.4 µM. In data set [2], the IC50 is more than 600 µM and the ABTS-TEAC100 came out at 0.21. Further, in data set [3], the FRAP-TEAC100 came to 0.00, the “FRAP Assay (%) at 100 µM” value amounted to 0.1% and the “FRAP Assay (%) at 200 µM” value came to 0.7%.
Consider `O=C(O)CN(CCN(CC(=O)O)CC(=O)O)CC(=O)O` [EDTA, reference compound], for which the “Inhibition of the Fe^+2-Ferrozine complex” value in data set [5] was “completely inhibits”.
For `O=C(/C=C(O)/C=C/c1ccc(O)cc1F)c1ccccc1` [Compound 4a, (2Z,4E)-5-(2-fluoro-4-hydroxyphenyl)-3-hydroxy-1-phenylpenta-2,4-dien-1-one], in data set [1], half-maximal inhibition (IC50 at 24 h) was put at 104 ± 7.1 µM. Moreover, in data set [2], the 50% inhibitory concentration (IC50) was determined as 108 ± 7.6 µM and the ABTS-TEAC100 is given as 0.40. In data set [3], the FRAP-TEAC100 amounted to 0.15, the “FRAP Assay (%) at 100 µM” value stood at 9.8% and the “FRAP Assay (%) at 200 µM” value is 14.3%.

Broadly, the IC50 is the midpoint of a concentration-inhibition curve. A high value points to weaker potency in that assay.
